Data from patent US8598227B2, “Epoprostenol formulation and method of making thereof” (Actelion Pharmaceuticals Ltd., priority 2006, dated 2013).

Assays:
[1] = Dilution stability of reconstituted lyophile diluted to 10 μg/ml in IV fluids; assay type: physicochemical
Protocol: Dilution studies were also conducted to determine whether the formulations of the present invention are suitable for IV infusion at room temperature. The stability studies were conducted at 25° C. and 30° C. to mimic the temperatures during the infusion over a 24 hour period in various large volume parenteral solutions.
To this end, the stability of the epoprostenol lyophile reconstituted and diluted to 10 μg/ml in normal saline was stability monitored for 48 hours at 25° C. and 30° C. Dilution stability of all three primary formulation batches was conducted in normal saline at 25° C. and 30° C. In addition to these studies, dilution stability studies on one lot of primary formulation batch were conducted at 25° C. and 30° C. in 5% Dextrose (D5W), WFI (in-house) and lactated Ringer's solution.
For the dilution studies, each vial was reconstituted with 5 ml of the diluent. The clear solution was transferred into a 50 ml volumetric flask. The vial was rinsed with 5 ml of diluent three times and the rinses were transferred to the flask. The contents of the flask were further diluted with the diluent and made up to the mark with the diluent. The pH of the diluted solution was measured and recorded. The contents of the flask were held at the temperatures noted and analyzed at predetermined time intervals.

[2] = Solution stability of reconstituted lyophile (epoprostenol 0.5 mg/ml, arginine 50 mg/ml, pH 13.0); assay type: physicochemical; details: 50 mg/ml arginine
Protocol: In the next set of experiments, the pH of the solution containing epoprostenol and arginine was adjusted to 13.0 with sodium hydroxide, and lyophilized. Upon reconstitution of the lyophile with 1 ml of Water for Injection, the reconstituted solution contains 50 mg/ml arginine and 0.5 mg/ml epoprostenol. The pH of the solution is 13.0. The stability data are presented in Table 6 for 5° C. and Table 7 for 29° C. below: […]

[3] = Solution stability of Epoprostenol in presence of 50 mg/ml of arginine; assay type: physicochemical; details: 50 mg/ml arginine
Protocol: A solution of epoprostenol and 50 mg/ml of arginine was prepared and the stability of this solution at 5° C. was determined. The resulting data are presented in the Table 4: Stability of the same formulation was also conducted at pH 11.2; and the data are summarized in the Table 5 below: […]

[4] = cited from earlier work

## CCCCC[C@H](O)/C=C/C1[C@H]2C/C(=C/CCCC(=O)[O-])OC2C[C@H]1O.[Na+] (stereo partly drawn) [Epoprostenol, (5Z,9(alpha),11(alpha),13E,15S)-6,9-epoxy-11,15-dihydroxyprosta-5,13-dien-1-oic acid]
[1]; D5W, after 8 hours
  drug degraded: approximately 84%
[1]; lactated Ringer's solution, 25° C. and 30° C.
  stability compared with normal saline: comparable to that of normal saline
[1]; water, 30° C., for more than 18 hours
  potency maintained: greater than 90%
[2]; pH 13.0, 5° C., over 480 hours
  loss of potency: 3.4%
  loss of potency on average: 0.007 %/hour
[2]; pH 13.0, 5 ± 1° C., 14.5 Hours
  % Assay of Epoprostenol by Area: 99.8%
  Area % of 6-keto PGF et al. impurities: 0.20%
[2]; pH 13.0, 5 ± 1° C., 53 Hours
  % Assay of Epoprostenol by Area: 98.8%
[2]; pH 13.0, 5 ± 1° C., 124 Hours
  % Assay of Epoprostenol by Area: 98.0%
  Area % of 6-keto PGF et al. impurities: 0.40%
[2]; pH 13.0, 5 ± 1° C., 148 Hours
  % Assay of Epoprostenol by Area: 97.6%
  Area % of 6-keto PGF et al. impurities: 0.45%
[2]; pH 13.0, 5 ± 1° C., 192 Hours
  % Assay of Epoprostenol by Area: 97.3%
  Area % of 6-keto PGF et al. impurities: 0.47%
[2]; pH 13.0, 5 ± 1° C., 240 Hours
  % Assay of Epoprostenol by Area: 96.9%
  Area % of 6-keto PGF et al. impurities: 0.61%
[2]; pH 13.0, 5 ± 1° C., 480 Hours
  % Assay of Epoprostenol by Area: 96.6%
  Area % of 6-keto PGF et al. impurities: 0.70%
[2]; pH 13.0, 5 ± 1° C., Initial
  % Assay of Epoprostenol by Area: 100.0%
  Area % of 6-keto PGF et al. impurities: 0.16%
[2]; pH 13.0, 29° C., in 12 hours
  degradation: 1.5%
[2]; pH 13.0, 29 ± 1° C., 1 HRS
  % Assay of Epoprostenol by Area: 100.0%
  Area % of 6-keto et al. impurities: 0.087%
[2]; pH 13.0, 29 ± 1° C., 5 HRS
  % Assay of Epoprostenol by Area: 99.8%
  Area % of 6-keto et al. impurities: 0.18%
[2]; pH 13.0, 29 ± 1° C., 7 HRS
  % Assay of Epoprostenol by Area: 99.3%
  Area % of 6-keto et al. impurities: 0.21%
[2]; pH 13.0, 29 ± 1° C., 8 HRS
  % Assay of Epoprostenol by Area: 99.2%
  Area % of 6-keto et al. impurities: 0.25%
[2]; pH 13.0, 29 ± 1° C., 9 HRS
  % Assay of Epoprostenol by Area: 99.1%
  Area % of 6-keto et al. impurities: 0.29%
[2]; pH 13.0, 29 ± 1° C., 10 HRS
  % Assay of Epoprostenol by Area: 98.8%
  Area % of 6-keto et al. impurities: 0.28%
[2]; pH 13.0, 29 ± 1° C., 11 HRS
  % Assay of Epoprostenol by Area: 98.6%
  Area % of 6-keto et al. impurities: 0.29%
[2]; pH 13.0, 29 ± 1° C., 12 HRS
  % Assay of Epoprostenol by Area: 98.5%
  Area % of 6-keto et al. impurities: 0.30%
[2]; pH 13.0, 29 ± 1° C., 13 HRS
  % Assay of Epoprostenol by Area: 98.1%
  Area % of 6-keto et al. impurities: 0.38%
[2]; pH 13.0, 29 ± 1° C., 14 HRS
  % Assay of Epoprostenol by Area: 98.0%
  Area % of 6-keto et al. impurities: 0.37%
[2]; pH 13.0, 29 ± 1° C., 15 HRS
  % Assay of Epoprostenol by Area: 97.8%
  Area % of 6-keto et al. impurities: 0.39%
[2]; pH 13.0, 29 ± 1° C., 24 HRS
  % Assay of Epoprostenol by Area: 97.5%
  Area % of 6-keto et al. impurities: 0.39%
[2]; pH 13.0, 29 ± 1° C., 36 HRS
  % Assay of Epoprostenol by Area: 97.5%
  Area % of 6-keto et al. impurities: 0.45%
[2]; pH 13.0, 29 ± 1° C., Initial
  % Assay of Epoprostenol by Area: 100.0%
  Area % of 6-keto et al. impurities: 0.072%
[3]; pH 11.2, 5 ± 1° C., 4.0 HRS
  % Assay of Epoprostenol by Area: 99.5%
  Area % of 6-keto et al. impurities: 0.28%
[3]; pH 11.2, 5 ± 1° C., 7.0 HRS
  % Assay of Epoprostenol by Area: 99.0%
  Area % of 6-keto et al. impurities: 0.39%
[3]; pH 11.2, 5 ± 1° C., 10.0 HRS
  % Assay of Epoprostenol by Area: 98.6%
  Area % of 6-keto et al. impurities: 0.53%
[3]; pH 11.2, 5 ± 1° C., 11.5 HRS
  % Assay of Epoprostenol by Area: 98.3%
  Area % of 6-keto et al. impurities: 0.57%
[3]; pH 11.2, 5 ± 1° C., 17.5 HRS
  % Assay of Epoprostenol by Area: 97.3%
  Area % of 6-keto et al. impurities: 0.80%
[3]; pH 11.2, 5 ± 1° C., Initial
  % Assay of Epoprostenol by Area: 100.0%
[3]; pH 11.9, 5° C., at 53 hours
  loss in potency: 1.4%
[3]; pH 11.9, 5 ± 1° C., 2 HRS
  % Assay of Epoprostenol by Area: 99.9%
  Area % of 6-keto et al. impurities: 0.19%
[3]; pH 11.9, 5 ± 1° C., 4 HRS
  % Assay of Epoprostenol by Area: 99.8%
  Area % of 6-keto et al. impurities: 0.19%
[3]; pH 11.9, 5 ± 1° C., 6 HRS
  % Assay of Epoprostenol by Area: 99.8%
  Area % of 6-keto et al. impurities: 0.21%
[3]; pH 11.9, 5 ± 1° C., 8 HRS
  % Assay of Epoprostenol by Area: 99.7%
  Area % of 6-keto et al. impurities: 0.22%
[3]; pH 11.9, 5 ± 1° C., 10 HRS
  % Assay of Epoprostenol by Area: 99.6%
  Area % of 6-keto et al. impurities: 0.23%
[3]; pH 11.9, 5 ± 1° C., 12.5 HRS
  % Assay of Epoprostenol by Area: 99.6%
  Area % of 6-keto et al. impurities: 0.25%
[3]; pH 11.9, 5 ± 1° C., 14.5 HRS
  % Assay of Epoprostenol by Area: 99.6%
  Area % of 6-keto et al. impurities: 0.26%
[3]; pH 11.9, 5 ± 1° C., 39 HRS
  % Assay of Epoprostenol by Area: 99.5%
  Area % of 6-keto et al. impurities: 0.63%
[3]; pH 11.9, 5 ± 1° C., 53 HRS
  % Assay of Epoprostenol by Area: 98.6%
  Area % of 6-keto et al. impurities: 1.15%
[3]; pH 11.9, 5 ± 1° C., 77 HRS
  % Assay of Epoprostenol by Area: 92.7%
  Area % of 6-keto et al. impurities: 2.05%
[3]; pH 11.9, 5 ± 1° C., 100 HRS
  % Assay of Epoprostenol by Area: 92.5%
  Area % of 6-keto et al. impurities: 2.10%
[3]; pH 11.9, 5 ± 1° C., 124 HRS
  % Assay of Epoprostenol by Area: 92.5%
  Area % of 6-keto et al. impurities: 2.25%
[3]; pH 11.9, 5 ± 1° C., Initial
  % Assay of Epoprostenol by Area: 100.0%
  Area % of 6-keto et al. impurities: 0.15%

## N=C(N)NCCC[C@H](N)C(=O)O [arginine]
[4]
  basic pKa: 10.8
